We go through two compounds from article PMC12526004, “Tiliroside Suppresses Uric Acid Production in Hepatocytes and Attenuates Purine-Induced Hyperuricemia in Male ICR Mice” (Molecules, 2025).

The test system of data set [1] is hepatic XO protein expression. In words: Western blot of hepatic XO protein expression. The class given is in vivo, male ICR mice. As to conditions: three days, normalized to GAPDH. The method, then: The antihyperuricemic effect of tiliroside was evaluated using mice with purine-induced hyperuricemia, following a previously described procedure. […] The test compounds were suspended in 0.2 mL of 0.5% CMC-Na based on the average body weight of each group. The actual volume administered was adjusted according to the individual body weight of each mouse. Prior to each administration, the mice were fasted for four hours. The negative and hyperuricemic control groups received the vehicle (0.5% CMC-Na) alone. […] GMP and IMP were dissolved in 0.2 mL of PBS (–) based on the average body weight of all mice. The injection volume was similarly adjusted according to each mouse’s body weight. These injections were performed one hour after the final oral administration of the test compounds or vehicle. The negative control group received PBS (–) alone. […] The liver and kidneys were then excised. Blood samples were centrifuged at 5000× g for 10 min at 4 °C to obtain plasma, which was stored at −80 °C until analysis. Liver samples preparation was performed according to the methods previously described. Each portion of the liver tissue was processed for a specific analysis. One portion was homogenized in ice-cold 100 mM Tris-HCl buffer (pH 7.5), followed by sonication and centrifugation at 10,000× g for 5 min at 4 °C. The resulting supernatant was collected for the determination of UA levels. […]

The subject of the next data set is OAT1. In words: Renal mRNA expression, real-time quantitative PCR. Type of data set: in vivo, male ICR mice. Particulars: three days. The method, then:
(§1) The antihyperuricemic effect of tiliroside was evaluated using mice with purine-induced hyperuricemia, following a previously described procedure. […] The test compounds were suspended in 0.2 mL of 0.5% CMC-Na based on the average body weight of each group. The actual volume administered was adjusted according to the individual body weight of each mouse. Prior to each administration, the mice were fasted for four hours. The negative and hyperuricemic control groups received the vehicle (0.5% CMC-Na) alone. […] GMP and IMP were dissolved in 0.2 mL of PBS (–) based on the average body weight of all mice. The injection volume was similarly adjusted according to each mouse’s body weight. These injections were performed one hour after the final oral administration of the test compounds or vehicle. The negative control group received PBS (–) alone. […] The liver and kidneys were then excised. Blood samples were centrifuged at 5000× g for 10 min at 4 °C to obtain plasma, which was stored at −80 °C until analysis. To assess renal gene expression, four mice per group were selected based on plasma UA levels approximating the group mean. Total RNA was extracted from kidney tissues of the negative control, hyperuricemic model, allopurinol-treated, and high-dose tiliroside-treated groups using the Trizol-chloroform method (Thermo Fisher Scientific). Reverse transcription was performed with 1 µg of RNA using iScript reverse transcriptase (Bio-Rad, Hercules, CA, USA). Quantitative PCR was conducted using the MyiQ2 real-time PCR system (Bio-Rad), with GAPDH as the reference gene.

For another data set, the system named is URAT1. In words: Renal mRNA expression, real-time quantitative PCR. The class given is in vivo, male ICR mice. Particulars: three days, vs hyperuricemic control. Here is the method: as §1
The target in data set [2] is xanthine oxidase (bovine milk-derived) (Bos taurus, UniProt P80457). Put plainly: XO inhibition assay in vitro (UV absorbance at 295 nm). Type of data set: biochemical. Particulars: xanthine substrate, 37 °C, mean of three independent experiments, read-out: IC50, direct XO inhibitory activity.
Description: Prior to the assay, the compounds were freshly dissolved in a mixture of 30% dimethyl sulfoxide (DMSO; FUJIFILM Wako) and 70% phosphate buffer (100 mM, pH 7.5) to prepare test solutions at final concentrations ranging from 0 to 100 µM. In each well of a 96-well microplate, 50 µL of the test solution was mixed with 60 µL of buffer and 30 µL of xanthine oxidase (7.8 mU/mL, bovine milk-derived; Sigma-Aldrich). After preincubation at 37 °C for 10 min, the reaction was initiated by adding 60 µL of xanthine substrate (150 µM; FUJIFILM Wako). Absorbance at 295 nm was monitored for 30 min at 37 °C using a Spark 10 M microplate reader (Tecan Group Ltd., Männedorf, Switzerland). XO inhibitory activity was expressed as percentage inhibition, calculated using the formula Inhibition (%) = 100 × [1 − (B/A)], where A and B represent the absorbance increase in the absence and presence of the test compound, respectively. All measurements were performed in triplicate.
All experimental data are presented as mean ± SEM. […] Data from the in vitro XO inhibition assay are shown as mean values from three independent experiments. IC50 values were calculated by nonlinear regression analysis using dose–response curves generated from at least six concentrations of each compound. All statistical analyses were performed using GraphPad Prism version 10 (GraphPad Software, San Diego, CA, USA).
A further data set concerns AML12 hepatocytes. Put plainly: Cell viability, WST-8 assay. Type of data set: cell-based. As to conditions: concentrations up to 100 µM, 2 h. Here is the method: The viability of AML12 cells was determined using the WST-8 assay provided in the Cell Counting Kit-8 (Dojindo Laboratories, Kumamoto, Japan). Cells were initially seeded at 5 × 10^3 cells per well in 96-well plates and maintained in DMEM/F-12 medium containing 10% (v/v) FBS for 72 h. To induce serum deprivation, the medium was replaced with serum-free DMEM/F-12, and cells were incubated for an additional 24 h. […] The treatment lasted for 2 h. Subsequently, cells were washed again with BSS and incubated with the WST-8 reagent for 1 h. Absorbance was measured at 490 nm using a microplate reader (MTP-310Lab; CORONA […] Co., Ltd., […], Japan). Cell viability was normalized to the DMSO control (0 μM), which was set at 100%.

The next data set has as its target T1, hepatic XO (Mus musculus, UniProt Q00519).
T1 construct: 40 µL of liver homogenate was mixed with 30 µL of ice-cold 100 mM Tris-HCl buffer; from tissue; host or cells: liver of male ICR mice (homogenate supernatant)
In words: Hepatic XO activity in hyperuricemic model mice. Type of data set: in vivo, male ICR mice. Particulars: three days, mean ± SEM.

Another data set relates to ABCC4. In words: Renal mRNA expression, real-time quantitative PCR. The class given is in vivo, male ICR mice. As to conditions: 300 mg/kg oral, three days. The method, then:
as §1

The subject of the next data set is ABCG2. Put plainly: Renal mRNA expression, real-time quantitative PCR. Type of data set: in vivo, male ICR mice. As to conditions: 300 mg/kg oral, three days. The method, then: as §1
In the next data set the test system is GLUT9. In words: Renal mRNA expression, real-time quantitative PCR. The class given is in vivo, male ICR mice. As to conditions: 300 mg/kg oral, three days. Here is the method: as §1
The subject of the next data set is XO. Particulars: read-out: IC50, XO inhibition (previous report); cited from earlier work.
On the set-up of data set [3]: method as in PMID 39830960. Particulars: cited from earlier work.

Each structure is given as a SMILES string.

T1 sequence (Q00519 whole entry): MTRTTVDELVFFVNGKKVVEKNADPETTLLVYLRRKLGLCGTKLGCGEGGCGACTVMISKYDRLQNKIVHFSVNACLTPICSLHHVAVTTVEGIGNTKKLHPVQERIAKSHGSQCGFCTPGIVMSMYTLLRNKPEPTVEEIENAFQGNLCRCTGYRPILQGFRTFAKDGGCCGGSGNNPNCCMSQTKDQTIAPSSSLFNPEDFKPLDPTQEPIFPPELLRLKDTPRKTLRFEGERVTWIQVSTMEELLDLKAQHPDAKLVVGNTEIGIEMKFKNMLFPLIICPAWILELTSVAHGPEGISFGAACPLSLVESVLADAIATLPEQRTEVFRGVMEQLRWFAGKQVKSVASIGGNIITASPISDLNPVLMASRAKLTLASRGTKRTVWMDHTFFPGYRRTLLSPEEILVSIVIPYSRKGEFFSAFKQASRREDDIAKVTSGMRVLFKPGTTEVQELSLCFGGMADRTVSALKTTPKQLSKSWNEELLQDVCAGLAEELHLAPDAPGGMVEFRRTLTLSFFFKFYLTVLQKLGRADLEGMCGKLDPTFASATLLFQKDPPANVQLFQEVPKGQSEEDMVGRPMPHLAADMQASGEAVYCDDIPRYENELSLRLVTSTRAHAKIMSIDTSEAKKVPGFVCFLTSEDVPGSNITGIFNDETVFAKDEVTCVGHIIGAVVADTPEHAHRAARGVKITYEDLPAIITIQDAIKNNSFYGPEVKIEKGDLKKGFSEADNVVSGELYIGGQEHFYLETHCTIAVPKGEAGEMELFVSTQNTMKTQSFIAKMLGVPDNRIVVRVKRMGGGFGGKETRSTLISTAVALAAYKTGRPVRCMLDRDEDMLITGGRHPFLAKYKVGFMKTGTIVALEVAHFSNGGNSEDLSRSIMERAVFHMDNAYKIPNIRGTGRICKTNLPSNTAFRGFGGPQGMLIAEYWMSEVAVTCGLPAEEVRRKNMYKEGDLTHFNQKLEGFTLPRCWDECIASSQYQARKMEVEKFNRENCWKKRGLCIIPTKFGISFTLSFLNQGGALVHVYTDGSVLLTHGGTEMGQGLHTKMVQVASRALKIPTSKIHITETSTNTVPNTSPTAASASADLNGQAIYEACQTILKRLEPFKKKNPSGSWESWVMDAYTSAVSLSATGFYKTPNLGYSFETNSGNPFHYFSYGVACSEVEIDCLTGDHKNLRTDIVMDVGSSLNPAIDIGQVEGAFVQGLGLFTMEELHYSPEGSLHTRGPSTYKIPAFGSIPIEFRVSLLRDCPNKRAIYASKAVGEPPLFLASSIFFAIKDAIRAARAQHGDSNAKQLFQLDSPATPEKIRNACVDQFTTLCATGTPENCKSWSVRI
Chain of xanthine oxidase (bovine milk-derived) (P80457 whole entry): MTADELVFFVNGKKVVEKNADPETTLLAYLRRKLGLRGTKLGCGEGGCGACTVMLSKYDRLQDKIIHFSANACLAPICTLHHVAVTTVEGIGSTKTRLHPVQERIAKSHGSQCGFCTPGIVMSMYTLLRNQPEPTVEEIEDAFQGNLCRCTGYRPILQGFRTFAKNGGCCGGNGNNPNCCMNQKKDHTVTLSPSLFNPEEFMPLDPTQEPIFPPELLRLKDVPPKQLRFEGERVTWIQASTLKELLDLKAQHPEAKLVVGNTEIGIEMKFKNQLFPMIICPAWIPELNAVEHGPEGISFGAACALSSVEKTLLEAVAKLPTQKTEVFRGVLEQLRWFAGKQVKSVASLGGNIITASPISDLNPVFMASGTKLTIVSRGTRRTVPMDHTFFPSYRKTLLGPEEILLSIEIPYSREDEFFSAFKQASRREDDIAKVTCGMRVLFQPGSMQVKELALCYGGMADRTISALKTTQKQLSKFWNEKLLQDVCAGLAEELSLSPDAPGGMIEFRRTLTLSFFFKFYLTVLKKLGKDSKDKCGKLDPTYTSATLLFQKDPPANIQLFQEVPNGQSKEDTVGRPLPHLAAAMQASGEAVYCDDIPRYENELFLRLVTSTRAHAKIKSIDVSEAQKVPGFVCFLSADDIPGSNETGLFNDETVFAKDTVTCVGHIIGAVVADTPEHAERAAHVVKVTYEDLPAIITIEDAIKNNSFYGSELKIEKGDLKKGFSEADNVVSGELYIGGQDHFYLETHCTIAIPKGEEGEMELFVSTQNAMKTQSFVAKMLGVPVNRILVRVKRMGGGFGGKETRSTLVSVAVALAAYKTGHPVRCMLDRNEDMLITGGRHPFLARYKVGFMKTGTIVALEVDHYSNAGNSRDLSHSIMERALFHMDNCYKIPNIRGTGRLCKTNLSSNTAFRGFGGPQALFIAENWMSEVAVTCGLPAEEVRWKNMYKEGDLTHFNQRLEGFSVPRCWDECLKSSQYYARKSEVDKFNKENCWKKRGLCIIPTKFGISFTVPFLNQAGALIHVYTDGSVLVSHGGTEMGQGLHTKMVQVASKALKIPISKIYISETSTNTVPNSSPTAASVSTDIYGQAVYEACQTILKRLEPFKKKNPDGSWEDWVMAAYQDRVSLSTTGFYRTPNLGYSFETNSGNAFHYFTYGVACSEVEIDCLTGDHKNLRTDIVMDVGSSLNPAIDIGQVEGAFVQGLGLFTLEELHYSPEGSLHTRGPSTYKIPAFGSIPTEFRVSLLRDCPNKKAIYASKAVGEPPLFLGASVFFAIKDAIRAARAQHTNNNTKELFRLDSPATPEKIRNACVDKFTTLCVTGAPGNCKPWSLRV

In the case of `Oc1ncnc2[nH]ncc12` [Allopurinol, allopurinol, reference compound], the “hepatic XO protein expression” value in data set [1] (10 mg/kg oral) was “No statistically significant differences”. Further, the “renal OAT1 mRNA expression” value in the data set with OAT1 (10 mg/kg oral) is reported as “no significant differences”. For the same compound, in the data set with URAT1 (10 mg/kg oral), the “renal URAT1 mRNA expression” value is listed as “significantly downregulated”.

For `O=C(/C=C/c1ccc(O)cc1)OC[C@H]1O[C@@H](Oc2c(-c3ccc(O)cc3)oc3cc(O)cc(O)c3c2=O)[C@H](O)[C@@H](O)[C@@H]1O` [Tiliroside, kaempferol-3-O-(6′′-p-coumaroyl)-glucoside], the IC50 (in data set [2]; in the data set on XO) was above 100 µM in each case. Also, the “cytotoxic effects (cell viability)” value with AML12 hepatocytes is listed as “did not exhibit any cytotoxic effects”. The “Hepatic XO Activity” value stood at 0.70 ± 0.08 µmol UA/min/mg Protein at hepatic XO (50 mg/kg oral), 0.82 ± 0.06 µmol UA/min/mg Protein on hepatic XO (100 mg/kg oral) and 0.67 ± 0.07 µmol UA/min/mg Protein at hepatic XO (300 mg/kg oral). The “hepatic XO protein expression” value in [1] (all tested doses (50, 100, and 300 mg/kg) oral) is “No statistically significant differences”. Besides, in the data set on ABCC4, the “renal ABCC4 mRNA expression” value is on record as “did not affect”. Besides, the “renal ABCG2 mRNA expression” value in the data set on ABCG2 is recorded as “did not affect”. For the same compound, the “renal GLUT9 mRNA expression” value in the data set on GLUT9 was “did not affect”. In the data set with OAT1 (300 mg/kg oral), the “renal OAT1 mRNA expression” value is “no significant differences”. In addition, the “renal URAT1 mRNA expression” value with URAT1 (300 mg/kg oral) is “significantly downregulated”. The toxicity and mutagenicity entry in data set [3] is “non-toxic and non-mutagenic”.

Usually IC50 stands for the point on the concentration scale where inhibition reaches its midpoint.
